Source: PubChem BioAssay (NCI)
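Cultured in 96-well plates, cells were exposed to test compound for 48 hours across five concentrations. GI50 is the concentration that inhibits growth by half. TGI denotes the concentration required for complete inhibition of growth.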 Where a SMILES comes first, the peptide text is derived from it. The star is where a group is joined. Boc = CC(C)(C)OC(=O)*

Columns and labels:
Assay in all cases: NCI tumour cell line growth inhibition, 48 h
COLO 205 colon = test system: COLO 205 colon
K-562 leukemia = test system: K-562 leukemia
OVCAR-4 ovarian = test system: OVCAR-4 ovarian
SW-620 colon = test system: SW-620 colon
M14 melanoma = test system: M14 melanoma
SF-539 CNS = test system: SF-539 CNS
SK-MEL-28 melanoma = test system: SK-MEL-28 melanoma
UACC-257 melanoma = test system: UACC-257 melanoma
A498 renal = test system: A498 renal
HOP-92 NSCLC = test system: HOP-92 NSCLC
SNB-75 CNS = test system: SNB-75 CNS

SMILES: CC(C)(C)OC(=O)NCC(=O)NCC(=O)NCC(=O)NCC(=O)O (Boc-GGGG-OH)
- TGI (COLO 205 colon): > 100 µM
- TGI (K-562 leukemia): > 100 µM
- TGI (OVCAR-4 ovarian): > 100 µM
- TGI (SW-620 colon): > 100 µM
- TGI (M14 melanoma): > 100 µM
- TGI (SF-539 CNS): > 100 µM
- TGI (SK-MEL-28 melanoma): > 100 µM
- TGI (UACC-257 melanoma): > 100 µM
- TGI (A498 renal): > 100 µM
- TGI (HOP-92 NSCLC): > 100 µM

SMILES: CC(=O)O[C@]12CCCCCC1C1(O)C(O)CCC[C@H]12 (stereo partly drawn)
- TGI (COLO 205 colon): > 100 µM
- TGI (K-562 leukemia): > 100 µM
- TGI (OVCAR-4 ovarian): > 100 µM
- TGI (SW-620 colon): > 100 µM
- TGI (SNB-75 CNS): > 100 µM
- TGI (M14 melanoma): > 100 µM
- TGI (SK-MEL-28 melanoma): > 100 µM
- TGI (UACC-257 melanoma): > 100 µM

SMILES: CCN(CC)CCOc1ccc(N2C(=O)c3cc(OC)c(OC)cc3C2=O)cc1
- TGI (COLO 205 colon): > 100 µM
- TGI (K-562 leukemia): > 100 µM
- TGI (OVCAR-4 ovarian): > 100 µM
- TGI (SW-620 colon): > 100 µM
- TGI (M14 melanoma): > 100 µM
- TGI (SF-539 CNS): > 100 µM
- TGI (SK-MEL-28 melanoma): > 100 µM
- TGI (UACC-257 melanoma): > 100 µM
- TGI (A498 renal): > 100 µM
- TGI (HOP-92 NSCLC): > 100 µM

SMILES: N#CC(C#N)=CNC(=S)c1ccncc1
- TGI (COLO 205 colon): > 100 µM
- TGI (K-562 leukemia): > 100 µM
- TGI (OVCAR-4 ovarian): > 100 µM
- TGI (SW-620 colon): > 100 µM
- TGI (SNB-75 CNS): > 100 µM
- TGI (M14 melanoma): > 100 µM
- TGI (SF-539 CNS): 68.4 µM
- TGI (SK-MEL-28 melanoma): > 100 µM
- TGI (UACC-257 melanoma): > 100 µM
- TGI (A498 renal): > 100 µM

SMILES: Cc1c2c(n(CCc3ccc(Cl)cc3)c1C)NN=C(C#N)S2(=O)=O
- TGI (COLO 205 colon): > 100 µM
- TGI (K-562 leukemia): > 100 µM
- TGI (OVCAR-4 ovarian): > 100 µM
- TGI (SW-620 colon): > 100 µM
- TGI (SNB-75 CNS): > 100 µM
- TGI (M14 melanoma): > 100 µM
- TGI (SF-539 CNS): > 100 µM
- TGI (SK-MEL-28 melanoma): > 100 µM
- TGI (UACC-257 melanoma): > 100 µM

SMILES: O=C(CCCN1CCC2(CC1)CC(=O)N(N1CCOCC1)C2=O)c1ccccc1
- TGI (COLO 205 colon): > 100 µM
- TGI (K-562 leukemia): > 100 µM
- TGI (SW-620 colon): > 100 µM
- TGI (SNB-75 CNS): > 100 µM
- TGI (M14 melanoma): > 100 µM
- TGI (SF-539 CNS): > 100 µM
- TGI (SK-MEL-28 melanoma): > 100 µM
- TGI (UACC-257 melanoma): > 100 µM

SMILES: COc1ccc2cc(-c3ccc(-c4ccc(C(=N)N)s4)s3)ccc2c1
- GI50 (COLO 205 colon): 2.04 µM
- TGI (COLO 205 colon): 4.24 µM
- GI50 (SW-620 colon): 1.91 µM
- TGI (SW-620 colon): 3.81 µM
- GI50 (SNB-75 CNS): 10.4 µM
- TGI (SNB-75 CNS): 26.6 µM
- GI50 (M14 melanoma): 4 µM
- TGI (M14 melanoma): 15.7 µM
- GI50 (SF-539 CNS): 3.91 µM
- TGI (SF-539 CNS): 19.2 µM
- GI50 (SK-MEL-28 melanoma): 2.5 µM
- TGI (SK-MEL-28 melanoma): 6.04 µM
- GI50 (UACC-257 melanoma): 19.6 µM
- TGI (UACC-257 melanoma): 35.4 µM
- GI50 (A498 renal): 14.3 µM
- TGI (A498 renal): 42.3 µM

SMILES: COCOc1ccc(Cn2c(=O)n(C)c(=O)c3c2ncn3C)cc1[N+](=O)[O-]
- TGI (COLO 205 colon): > 100 µM
- TGI (K-562 leukemia): > 100 µM
- TGI (SW-620 colon): > 100 µM
- TGI (SNB-75 CNS): > 100 µM
- TGI (M14 melanoma): > 100 µM
- TGI (SF-539 CNS): > 100 µM
- TGI (SK-MEL-28 melanoma): > 100 µM
- TGI (UACC-257 melanoma): > 100 µM

SMILES: COc1cc([N+](=O)[O-])c(OC)cc1-c1nc2sc(Cl)cn2c1/C=N/Nc1ccccn1
- GI50 (COLO 205 colon): > 50 µM
- TGI (COLO 205 colon): > 50 µM
- GI50 (K-562 leukemia): > 50 µM
- TGI (K-562 leukemia): > 50 µM
- GI50 (SW-620 colon): > 50 µM
- TGI (SW-620 colon): > 50 µM
- GI50 (SF-539 CNS): 9.7 µM
- TGI (SF-539 CNS): 16.8 µM
- GI50 (UACC-257 melanoma): > 50 µM
- TGI (UACC-257 melanoma): > 50 µM
- GI50 (A498 renal): 8.95 µM
- TGI (A498 renal): 19.4 µM

SMILES: O=[N+]([O-])/C(C(Cl)=C(Cl)Cl)=C(\Nc1cccc2cccnc12)SCc1ccccc1
- TGI (COLO 205 colon): 33.5 µM
- TGI (K-562 leukemia): 56.9 µM
- TGI (OVCAR-4 ovarian): 46 µM
- TGI (SW-620 colon): 36.8 µM
- TGI (SNB-75 CNS): 40.9 µM
- TGI (M14 melanoma): 74.3 µM
- TGI (SF-539 CNS): 32.6 µM
- TGI (SK-MEL-28 melanoma): 33.9 µM
- TGI (UACC-257 melanoma): 49.2 µM
- TGI (A498 renal): 50.6 µM

SMILES: O=C(/C=C/c1ccsc1)c1ccsc1
- TGI (COLO 205 colon): 52.8 µM
- TGI (OVCAR-4 ovarian): > 100 µM
- TGI (SW-620 colon): 60.1 µM
- TGI (SNB-75 CNS): > 100 µM
- TGI (M14 melanoma): 66.4 µM
- TGI (SF-539 CNS): 37.9 µM
- TGI (SK-MEL-28 melanoma): 89.3 µM
- TGI (UACC-257 melanoma): 39.6 µM
- TGI (A498 renal): > 100 µM

SMILES: COc1nc(C#CCC(C)O)nc(OC)n1 (stereo not drawn)
- TGI (COLO 205 colon): 56.8 µM
- TGI (K-562 leukemia): > 100 µM
- TGI (OVCAR-4 ovarian): 36.2 µM
- TGI (SW-620 colon): 47.7 µM
- TGI (SNB-75 CNS): 64 µM
- TGI (M14 melanoma): 39.6 µM
- TGI (SF-539 CNS): 59.2 µM
- TGI (SK-MEL-28 melanoma): > 100 µM
- TGI (UACC-257 melanoma): > 100 µM
- TGI (A498 renal): 77.1 µM

SMILES: CCN(CCO)CC1COc2ccccc2O1 (stereo not drawn)
- TGI (COLO 205 colon): > 100 µM
- TGI (K-562 leukemia): > 100 µM
- TGI (OVCAR-4 ovarian): > 100 µM
- TGI (M14 melanoma): > 100 µM
- TGI (SF-539 CNS): > 100 µM
- TGI (SK-MEL-28 melanoma): > 100 µM
- TGI (UACC-257 melanoma): > 100 µM
- TGI (A498 renal): > 100 µM
- TGI (HOP-92 NSCLC): > 100 µM

SMILES: N#C/C(=C\c1cc(Br)c(O)c(Br)c1)c1cccnc1
- TGI (COLO 205 colon): > 100 µM
- TGI (K-562 leukemia): > 100 µM
- TGI (OVCAR-4 ovarian): > 100 µM
- TGI (SW-620 colon): > 100 µM
- TGI (SNB-75 CNS): > 100 µM
- TGI (M14 melanoma): > 100 µM
- TGI (SF-539 CNS): 71.5 µM
- TGI (SK-MEL-28 melanoma): > 100 µM
- TGI (UACC-257 melanoma): 73.5 µM

SMILES: COc1ccc(CC(O)CN2CCOCC2)cc1 (stereo not drawn)
- TGI (K-562 leukemia): > 100 µM
- TGI (OVCAR-4 ovarian): > 100 µM
- TGI (SW-620 colon): > 100 µM
- TGI (M14 melanoma): > 100 µM
- TGI (SK-MEL-28 melanoma): > 100 µM
- TGI (UACC-257 melanoma): > 100 µM
- TGI (A498 renal): > 100 µM
- TGI (HOP-92 NSCLC): > 100 µM

SMILES: O=C1c2cc3c(cc2CC1Br)CCC3 (stereo not drawn)
- TGI (COLO 205 colon): 3.85 µM
- TGI (K-562 leukemia): 7.04 µM
- TGI (OVCAR-4 ovarian): 3.86 µM
- TGI (SW-620 colon): 3 µM
- TGI (SNB-75 CNS): 7.44 µM
- TGI (M14 melanoma): 2.85 µM
- TGI (SF-539 CNS): 4.2 µM
- TGI (SK-MEL-28 melanoma): 8.56 µM
- TGI (UACC-257 melanoma): 5.1 µM
- TGI (A498 renal): 32.2 µM

SMILES: Clc1ccc(-c2nn3c(-c4ccncc4)nnc3s2)cc1
- TGI (COLO 205 colon): > 100 µM
- TGI (K-562 leukemia): > 100 µM
- TGI (OVCAR-4 ovarian): > 100 µM
- TGI (SW-620 colon): > 100 µM
- TGI (M14 melanoma): > 100 µM
- TGI (SF-539 CNS): > 100 µM
- TGI (UACC-257 melanoma): > 100 µM
- TGI (HOP-92 NSCLC): > 100 µM

SMILES: O=C1/C(=C\c2cccc(Oc3ccccc3)c2)S(=O)(=O)C(c2ccccc2)N1Cc1ccccc1 (stereo not drawn)
- TGI (COLO 205 colon): 57 µM
- TGI (K-562 leukemia): > 100 µM
- TGI (SW-620 colon): > 100 µM
- TGI (M14 melanoma): 76.6 µM
- TGI (SF-539 CNS): > 100 µM
- TGI (SK-MEL-28 melanoma): 93.2 µM
- TGI (UACC-257 melanoma): 62.2 µM
- TGI (A498 renal): > 100 µM
- TGI (HOP-92 NSCLC): 73.3 µM
